# Test results: US20240116985A1, “STAPLED PEPTIDES AND METHODS THEREOF” (priority 2020, published 2024)
# Experiment: CHI Log D procedure
# Format: physicochemical
# Conditions: pH 7.4
row,Structure (SMILES),CHI Log D
1,"CC(=O)N[C@@H](Cc1ccccc1)C(=O)N[C@@H](CC(=O)O)C(=O)N[C@@H](C)C(=O)N[C@]1(C)CCCCCCC=CCOC(=O)N2CC[C@@](C(=O)N[C@@H](Cc3ccccc3)C(=O)N[C@@H](Cc3c[nH]c4ccccc34)C(=O)N[C@@H](CCC(N)=O)C(N)=O)(C2)NC(=O)[C@H](C(C)C)NC(=O)[C@H](Cc2ccccc2)NC(=O)[C@H](C)NC(=O)[C@H](C)NC(=O)[C@H](CCC(=O)O)NC(=O)[C@H](CC(=O)O)NC1=O [I-3, Ac-Phe-Asp-Ala-R8-Asp-Glu-Ala-Ala-Phe-Val-PyrS-Phe-Trp-Gln-NH2]",1.307
2,"CC(=O)N[C@@H](Cc1ccccc1)C(=O)N[C@@H](CC(=O)O)C(=O)N[C@@H](C)C(=O)N[C@]1(C)CCCCCCC=CCOC(=O)N2CC[C@@](C(=O)N[C@@H](Cc3ccccc3)C(=O)N[C@@H](Cc3c[nH]c4ccccc34)C(=O)N[C@@H](CCC(N)=O)C(N)=O)(C2)NC(=O)[C@H](C(C)C)NC(=O)[C@H](Cc2ccccc2)NC(=O)[C@H](C)NC(=O)[C@H](C)NC(=O)[C@H](Cc2ccccc2)NC(=O)[C@H](CC(=O)O)NC1=O [I-100, Ac-Phe-Asp-Ala-R8-Asp-Phe-Ala-Ala-Phe-Val-PyrS-Phe-Trp-Gln-NH2]",1.993
3,"CC(=O)N[C@@H](Cc1ccccc1)C(=O)N[C@@H](CC(=O)O)C(=O)N[C@@H](C)C(=O)N[C@]1(C)CCCCCCC=CCOC(=O)N2CC[C@@](C(=O)N[C@@H](Cc3ccccc3)C(=O)N[C@@H](Cc3c[nH]c4ccccc34)C(=O)N[C@@H](CCC(N)=O)C(N)=O)(C2)NC(=O)[C@H](C(C)C)NC(=O)[C@H](Cc2ccccc2)NC(=O)[C@H](CCCC(=O)O)NC(=O)[C@H](C)NC(=O)[C@H](CC(=O)O)NC(=O)[C@H](CC(=O)O)NC1=O [I-24, Ac-Phe-Asp-Ala-R8-Asp-Asp-Ala-Aad-Phe-Val-PyrS-Phe-Trp-Gln-NH2]",0.977

# Continued, values first:
row,CHI Log D,Structure (SMILES)
1,1.019,"CC(=O)N[C@@H](Cc1ccccc1)C(=O)N[C@@H](CC(=O)O)C(=O)N[C@@H](C)C(=O)N[C@]1(C)CCCCCCC=CCOC(=O)N2CC[C@@](C(=O)N[C@@H](Cc3ccc(O)cc3)C(=O)N[C@@H](Cc3c[nH]c4ccccc34)C(=O)N[C@@H](CCC(N)=O)C(N)=O)(C2)NC(=O)[C@H](C(C)C)NC(=O)[C@H](Cc2ccccc2)NC(=O)[C@H](C)NC(=O)[C@H](C)NC(=O)[C@H](CC(=O)O)NC(=O)[C@H](CC(=O)O)NC1=O (single isomer, unassigned) [I-63, Ac-Phe-Asp-Ala-R8-Asp-Asp-Ala-Ala-Phe-Val-PyrS-Tyr-Trp-Gln-NH2]"
2,2.834,"CCCC[C@@H]1NC(=O)[C@H](CC(=O)O)NC(=O)C2(CCCC=CCCCCCC[C@@](C)(C(=O)N[C@@H](Cc3ccccc3)C(=O)N[C@@H](Cc3c[nH]c4ccccc34)C(=O)N[C@@H](CCC(N)=O)C(N)=O)NC(=O)[C@H](C(C)C)NC(=O)[C@H](Cc3ccccc3)NC(=O)[C@H](C)NC(=O)[C@H](C)NC1=O)CCCC=CC[C@]1(CCCN1C(C)=O)C(=O)N[C@@H](CC(=O)O)C(=O)N[C@@H](C)C(=O)N2 (single isomer, unassigned) [I-139, Ac-PL3-Asp-Ala-B5-Asp-nLeu-Ala-Ala-Phe-Val-S8-Phe-Trp-Gln-NH2]"
3,1.032,"CC(=O)N[C@@H](Cc1ccccc1)C(=O)N[C@@H](CC(=O)O)C(=O)N[C@@H](C)C(=O)N[C@]1(C)CCCCCCC=CCOC(=O)N2CC[C@@](C(=O)N[C@@H](Cc3cccnc3)C(=O)N[C@@H](Cc3c[nH]c4ccccc34)C(=O)N[C@@H](CCC(N)=O)C(N)=O)(C2)NC(=O)[C@H](C(C)C)NC(=O)[C@H](Cc2ccccc2)NC(=O)[C@H](C)NC(=O)[C@H](C)NC(=O)[C@H](CC(=O)O)NC(=O)[C@H](CC(=O)O)NC1=O (single isomer, unassigned) [I-83, Ac-Phe-Asp-Ala-R8-Asp-Asp-Ala-Ala-Phe-Val-PyrS-3PyrA-Trp-Gln-NH2]"
4,2.145,"CC(=O)N[C@@H](Cc1ccccc1)C(=O)N[C@@H](CC(=O)O)C(=O)N[C@@H](C)C(=O)N[C@]1(C)CCCCCCC=CCOC(=O)N2CC[C@@](C(=O)N[C@@H](Cc3ccccc3)C(=O)N[C@@H](Cc3c[nH]c4ccccc34)C(=O)N[C@@H](CCC(N)=O)C(N)=O)(C2)NC(=O)[C@H](C(C)C)NC(=O)[C@H](Cc2ccccc2)NC(=O)[C@H](C)NC(=O)[C@H](C)NC(=O)[C@H](Cc2ccc3ccccc3c2)NC(=O)[C@H](CC(=O)O)NC1=O [I-115, Ac-Phe-Asp-Ala-R8-Asp-2NapA-Ala-Ala-Phe-Val-PyrS-Phe-Trp-Gln-NH2]"

# Same assay, conditions: pH 7.4, CHI Log D
Structure (SMILES),chromatographic logD,logD
"CC(=O)N[C@@H](Cc1ccccc1)C(=O)N[C@@H](CC(=O)O)C(=O)N[C@@H](C)C(=O)N[C@]1(C)CCCCCCC=CCOC(=O)N2CC[C@@](C(=O)N[C@@H](Cc3ccccc3)C(=O)N[C@@H](Cc3c[nH]c4ccccc34)C(=O)N[C@@H](CCC(N)=O)C(N)=O)(C2)NC(=O)[C@H](C(C)C)NC(=O)[C@H](Cc2ccccc2)NC(=O)[C@H](C)NC(=O)[C@H](C)NC(=O)[C@H](Cc2ccc(-c3ccccc3)cc2)NC(=O)[C@H](CC(=O)O)NC1=O (single isomer, unassigned) [I-11, Ac-Phe-Asp-Ala-R8-Asp-Bip-Ala-Ala-Phe-Val-PyrS-Phe-Trp-Gln-NH2]",2.27,
"CC(=O)N[C@@H](Cc1ccccc1)C(=O)N[C@@H](CC(=O)O)C(=O)N[C@@H](C)C(=O)N[C@]1(C)CCCCC=CCOC(=O)N(C)CCC[C@@](C)(C(=O)N[C@@H](Cc2ccccc2)C(=O)N[C@@H](Cc2c[nH]c3ccccc23)C(=O)N[C@@H](CCC(N)=O)C(N)=O)NC(=O)[C@H](C(C)C)NC(=O)[C@H](Cc2ccccc2)NC(=O)[C@H](C)NC(=O)[C@H](C)NC(=O)[C@H](CC(=O)O)NC(=O)[C@H](CC(=O)O)NC1=O [I-26, Ac-Phe-Asp-Ala-R6-Asp-Asp-Ala-Ala-Phe-Val-SeN-Phe-Trp-Gln-NH2]",1.25,
"CC(=O)N[C@@H](Cc1ccccc1)C(=O)N[C@@H](CC(=O)O)C(=O)N[C@@H](C)C(=O)N[C@]1(C)CCCCCC=CCOC(=O)N2CC(C(=O)N[C@@H](Cc3ccccc3)C(=O)N[C@@H](Cc3c[nH]c4ccccc34)C(=O)N[C@@H](CCC(N)=O)C(N)=O)(C2)NC(=O)[C@H](C(C)C)NC(=O)[C@H](Cc2ccccc2)NC(=O)[C@H](C)NC(=O)[C@H](C)NC(=O)[C@H](CC(=O)O)NC(=O)[C@H](CC(=O)O)NC1=O [I-38, Ac-Phe-Asp-Ala-R7-Asp-Asp-Ala-Ala-Phe-Val-Az-Phe-Trp-Gln-NH2]",1.21,
"CC(=O)N[C@@H](Cc1ccccc1)C(=O)N[C@@H](CC(=O)O)C(=O)N[C@@H](C)C(=O)N[C@]1(C)CCCCCCC=CCOC(=O)N2CC[C@@](C(=O)N[C@@H](Cc3ccccc3)C(=O)N[C@@H](Cc3c[nH]c4ccccc34)C(=O)N[C@@H](CCC(N)=O)C(N)=O)(C2)NC(=O)[C@H](C(C)C)NC(=O)[C@H](Cc2ccccc2)NC(=O)[C@H](C)NC(=O)[C@H](C)NC(=O)[C@H](CCC(C)C)NC(=O)[C@H](CC(=O)O)NC1=O (single isomer, unassigned) [I-17, Ac-Phe-Asp-Ala-R8-Asp-hLeu-Ala-Ala-Phe-Val-PyrS-Phe-Trp-Gln-NH2]",2.1,

# Second part, the compound after the results:
chromatographic logD,logD,Structure (SMILES)
2.11,,"CC(=O)N[C@@H](Cc1ccccc1)C(=O)N[C@@H](CC(=O)O)C(=O)N[C@@H](C)C(=O)N[C@]1(C)CCCCCCC=CCOC(=O)N2CC[C@@](C(=O)N[C@@H](Cc3ccccc3)C(=O)N[C@@H](Cc3c[nH]c4ccccc34)C(=O)N[C@@H](CCC(N)=O)C(N)=O)(C2)NC(=O)[C@H](C(C)C)NC(=O)[C@H](Cc2ccccc2)NC(=O)[C@H](C)NC(=O)[C@H](C)NC(=O)[C@H](Cc2cccc3ccccc23)NC(=O)[C@H](CC(=O)O)NC1=O [I-114, Ac-Phe-Asp-Ala-R8-Asp-1NapA-Ala-Ala-Phe-Val-PyrS-Phe-Trp-Gln-NH2]"
2.38,,"CC(=O)N1CCC[C@]12CC=CCCCC1(CCCC=CCCCCCC[C@@](C)(C(=O)N[C@@H](Cc3c(F)c(F)c(F)c(F)c3F)C(=O)N[C@@H](Cc3csc4ccccc34)C(=O)N[C@@H](CCC(N)=O)C(N)=O)NC(=O)[C@H](C(C)C)NC(=O)[C@H](Cc3ccccc3)NC(=O)[C@H](C)NC(=O)[C@H](C)NC(=O)[C@H](CC(=O)O)NC(=O)[C@H](CC(=O)O)NC1=O)NC(=O)[C@H](C)NC(=O)[C@H](CC(=O)O)NC2=O (stereo partly drawn) [I-302, Ac-PL3-Asp-Ala-B5-Asp-Asp-Ala-Ala-Phe-Val-S8-pff-BztA-Gln-NH2]"
2.87,,"CC(=O)N1CCC[C@]12CC=CCCCC1(CCCC=CCCCCCC[C@@](C)(C(=O)N[C@@H](Cc3ccccc3)C(=O)N[C@@H](Cc3c[nH]c4ccccc34)C(=O)N[C@@H](CCC(N)=O)C(N)=O)NC(=O)[C@H](C(C)C)NC(=O)[C@H](Cc3ccccc3)NC(=O)[C@H](C)NC(=O)[C@H](C)NC(=O)[C@@](C)(CC(C)C)NC(=O)[C@H](CC(=O)O)NC1=O)NC(=O)[C@H](C)NC(=O)[C@H](CC(=O)O)NC2=O (single isomer, unassigned) [I-215, Ac-PL3-Asp-Ala-B5-Asp-DaMeL-Ala-Ala-Phe-Val-S8-Phe-Trp-Gln-NH2]"
2.98,,"CC(=O)N1CCC[C@]12CC=CCCCC1(CCCC=CCCCCCC[C@@](C)(C(=O)N[C@@H](Cc3ccccc3)C(=O)N[C@@H](Cc3c[nH]c4ccccc34)C(=O)N[C@@H](CCC(N)=O)C(N)=O)NC(=O)[C@H](C(C)C)NC(=O)[C@H](Cc3ccccc3)NC(=O)[C@H](C)NC(=O)[C@H](C)NC(=O)[C@H](CCC(=O)O)NC(=O)[C@H](Cc3ccccn3)NC1=O)NC(=O)[C@H](C)NC(=O)[C@H](CC(=O)O)NC2=O (stereo partly drawn) [I-230, Ac-PL3-Asp-Ala-B5-2pyrA-Glu-Ala-Ala-Phe-Val-S8-Phe-Trp-Gln-NH2]"
2.62,,"CC(=O)N1CCC[C@]12CC=CCCCC1(CCCC=CCCCCCC[C@@](C)(C(=O)N[C@@H](Cc3ccccc3)C(=O)N[C@@H](Cc3c[nH]c4ccccc34)C(=O)N[C@@H](CCC(N)=O)C(N)=O)NC(=O)[C@H](C(C)C)NC(=O)[C@H](Cc3ccccc3)NC(=O)[C@H](C)NC(=O)[C@H](C)NC(=O)[C@H](CCC(=O)O)NC(=O)[C@H](CC(=O)O)NC1=O)NC(=O)[C@H](C)NC(=O)[C@H](Cc1ccc(O)cc1)NC2=O (stereo partly drawn) [I-202, Ac-PL3-Tyr-Ala-B5-Asp-Glu-Ala-Ala-Phe-Val-S8-Phe-Trp-Gln-NH2]"
,2.12,"CC(=O)N1CCC[C@]12CC=CCCCC1(CCCC=CCCCCCC[C@@](C)(C(=O)N[C@@H](Cc3ccccc3)C(=O)N[C@@H](Cc3c[nH]c4ccccc34)C(=O)N[C@@H](CO)C(N)=O)NC(=O)[C@H](CO)NC(=O)[C@H](Cc3ccccc3)NC(=O)[C@H](C)NC(=O)[C@H](C)NC(=O)[C@H](CC(=O)O)NC(=O)[C@H](CC(=O)O)NC1=O)NC(=O)[C@H](C)NC(=O)[C@H](CC(=O)O)NC2=O (stereo partly drawn) [I-333, Ac-PL3-Asp-Ala-B5-Asp-Asp-Ala-Ala-Phe-Ser-S8-Phe-WCHO-Ser-NH2]"
